Results reported in the supplement of paper PMC11451515.

System: NOMO1
Test: cell viability relative to DMSO control; higher = less cytotoxic
Details: 48 h
Method in brief: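 Viability is expressed as a percentage of DMSO wells within each plate, and cell-free wells serve as background. Seeding densities in the 1536-well plates (5 μl) were 500 cells/well for NOMO1 or SEM leukemia cells and 1000 cells/well for P12-Ichikawa. Each line was adapted for at least four passages in each medium. Library compounds in DMSO were pin-dosed at 47 μM to 0.79 nM (11 points, threefold), and CellTiter-Glo One luminescence was read after 48 h at 37°C.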

[1] = HPLM + 10% dialyzed FBS, 0.000781 µM
[2] = HPLM + 10% dialyzed FBS, 0.00234 µM
[3] = HPLM + 10% dialyzed FBS, 0.00702 µM
[4] = HPLM + 10% dialyzed FBS, 0.0211 µM
[5] = HPLM + 10% dialyzed FBS, 0.0632 µM
[6] = HPLM + 10% dialyzed FBS, 0.19 µM
[7] = HPLM + 10% dialyzed FBS, 0.569 µM
[8] = HPLM + 10% dialyzed FBS, 1.71 µM
[9] = HPLM + 10% dialyzed FBS, 5.12 µM
[10] = HPLM + 10% dialyzed FBS, 15.4 µM
[11] = HPLM + 10% dialyzed FBS, 46.1 µM
[12] = RPMI 5 mM glucose + 10% FBS, 0.000781 µM
[13] = RPMI 5 mM glucose + 10% FBS, 0.00234 µM
[14] = RPMI 5 mM glucose + 10% FBS, 0.00702 µM
[15] = RPMI 5 mM glucose + 10% FBS, 0.0211 µM
[16] = RPMI 5 mM glucose + 10% FBS, 0.0632 µM
[17] = RPMI 5 mM glucose + 10% FBS, 0.19 µM
[18] = RPMI 5 mM glucose + 10% FBS, 0.569 µM
[19] = RPMI 5 mM glucose + 10% FBS, 1.71 µM
[20] = RPMI 5 mM glucose + 10% FBS, 5.12 µM
[21] = RPMI 5 mM glucose + 10% FBS, 15.4 µM
[22] = RPMI 5 mM glucose + 10% FBS, 46.1 µM
[23] = RPMI 5 mM glucose + 10% dialyzed FBS, 0.000781 µM
[24] = RPMI 5 mM glucose + 10% dialyzed FBS, 0.00234 µM
[25] = RPMI 5 mM glucose + 10% dialyzed FBS, 0.00702 µM
[26] = RPMI 5 mM glucose + 10% dialyzed FBS, 0.0211 µM
[27] = RPMI 5 mM glucose + 10% dialyzed FBS, 0.0632 µM
[28] = RPMI 5 mM glucose + 10% dialyzed FBS, 0.19 µM
[29] = RPMI 5 mM glucose + 10% dialyzed FBS, 0.569 µM
[30] = RPMI 5 mM glucose + 10% dialyzed FBS, 1.71 µM
[31] = RPMI 5 mM glucose + 10% dialyzed FBS, 5.12 µM
[32] = RPMI 5 mM glucose + 10% dialyzed FBS, 15.4 µM
[33] = RPMI 5 mM glucose + 10% dialyzed FBS, 46.1 µM

COc1c(N2C[C@@H]3CCCN[C@@H]3C2)c(F)cc2c(=O)c(C(=O)O)cn(C3CC3)c12.Cl.O
cell viability [1]: 118%
cell viability [2]: 115%
cell viability [3]: 103%
cell viability [4]: 104%
cell viability [5]: 100%
cell viability [6]: 87.2%
cell viability [7]: 82.6%
cell viability [8]: 101%
cell viability [9]: 92.4%
cell viability [10]: 80.5%
cell viability [11]: 87.5%
cell viability [12]: 92.2%
cell viability [13]: 94.1%
cell viability [14]: 103%
cell viability [15]: 105%
cell viability [16]: 113%
cell viability [17]: 93.8%
cell viability [18]: 95%
cell viability [19]: 93.7%
cell viability [20]: 97.6%
cell viability [21]: 85.9%
cell viability [22]: 85.5%
cell viability [23]: 105%
cell viability [24]: 98.5%
cell viability [25]: 108%
cell viability [26]: 106%
cell viability [27]: 99.1%
cell viability [28]: 87.3%
cell viability [29]: 96%
cell viability [30]: 98.4%
cell viability [31]: 87.4%
cell viability [32]: 86.3%
cell viability [33]: 85.6%

CCCCN1CCC(CNC(=O)c2c3n(c4ccccc24)CCCO3)CC1
cell viability [1]: 104%
cell viability [2]: 107%
cell viability [3]: 111%
cell viability [4]: 115%
cell viability [5]: 112%
cell viability [6]: 114%
cell viability [7]: 132%
cell viability [8]: 123%
cell viability [9]: 125%
cell viability [10]: 110%
cell viability [11]: 89.4%
cell viability [12]: 95.8%
cell viability [13]: 98.5%
cell viability [14]: 103%
cell viability [15]: 111%
cell viability [16]: 118%
cell viability [17]: 109%
cell viability [18]: 117%
cell viability [19]: 106%
cell viability [20]: 108%
cell viability [21]: 117%
cell viability [22]: 90.5%
cell viability [23]: 96.5%
cell viability [24]: 110%
cell viability [25]: 105%
cell viability [26]: 114%
cell viability [27]: 110%
cell viability [28]: 106%
cell viability [29]: 117%
cell viability [30]: 104%
cell viability [31]: 113%
cell viability [32]: 124%
cell viability [33]: 90.1%

CC1(C)CCC(C)(C)c2cc(NC(=O)c3ccc(C(=O)O)cc3)ccc21
cell viability [1]: 91.4%
cell viability [2]: 91%
cell viability [3]: 98.5%
cell viability [4]: 111%
cell viability [5]: 101%
cell viability [6]: 100%
cell viability [7]: 98.1%
cell viability [8]: 109%
cell viability [9]: 79.9%
cell viability [10]: 92.9%
cell viability [11]: 60.7%
cell viability [12]: 85.7%
cell viability [13]: 90.6%
cell viability [14]: 89.8%
cell viability [15]: 97.5%
cell viability [16]: 95.4%
cell viability [17]: 97.3%
cell viability [18]: 99.8%
cell viability [19]: 101%
cell viability [20]: 98.5%
cell viability [21]: 94.4%
cell viability [22]: 76.1%
cell viability [23]: 99.8%
cell viability [24]: 91.9%
cell viability [25]: 91.3%
cell viability [26]: 89.8%
cell viability [27]: 97.7%
cell viability [28]: 90.2%
cell viability [29]: 95.3%
cell viability [30]: 93%
cell viability [31]: 88.2%
cell viability [32]: 84.5%
cell viability [33]: 75.9%

O=C(NOCC1CC1)c1ccc(F)c(F)c1Nc1ccc(I)cc1Cl
cell viability [1]: 97.2%
cell viability [2]: 109%
cell viability [3]: 123%
cell viability [4]: 115%
cell viability [5]: 99.1%
cell viability [6]: 91.7%
cell viability [7]: 74.7%
cell viability [8]: 68.5%
cell viability [9]: 52%
cell viability [10]: 49.3%
cell viability [11]: 41.4%
cell viability [12]: 84.5%
cell viability [13]: 91.6%
cell viability [14]: 100%
cell viability [15]: 112%
cell viability [16]: 95.1%
cell viability [17]: 93.8%
cell viability [18]: 73.5%
cell viability [19]: 83.5%
cell viability [20]: 56.9%
cell viability [21]: 46.9%
cell viability [22]: 50%
cell viability [23]: 95.7%
cell viability [24]: 108%
cell viability [25]: 97.2%
cell viability [26]: 107%
cell viability [27]: 92.4%
cell viability [28]: 86.8%
cell viability [29]: 82.1%
cell viability [30]: 75.6%
cell viability [31]: 44.2%
cell viability [32]: 42.8%
cell viability [33]: 44.4%

CN(C)c1ccc(-c2nc3c(N4CCN(CC(=O)Nc5nccs5)CC4)c(Cl)cnc3[nH]2)cc1
cell viability [1]: 117%
cell viability [2]: 130%
cell viability [3]: 121%
cell viability [4]: 124%
cell viability [5]: 113%
cell viability [6]: 127%
cell viability [7]: 112%
cell viability [8]: 102%
cell viability [9]: 101%
cell viability [10]: 89.9%
cell viability [11]: 69.2%
cell viability [12]: 102%
cell viability [13]: 99.3%
cell viability [14]: 98.6%
cell viability [15]: 94.6%
cell viability [16]: 101%
cell viability [17]: 108%
cell viability [18]: 93.6%
cell viability [19]: 109%
cell viability [20]: 103%
cell viability [21]: 89.9%
cell viability [22]: 77.7%
cell viability [23]: 108%
cell viability [24]: 107%
cell viability [25]: 103%
cell viability [26]: 108%
cell viability [27]: 113%
cell viability [28]: 106%
cell viability [29]: 101%
cell viability [30]: 107%
cell viability [31]: 98.3%
cell viability [32]: 94.8%
cell viability [33]: 70.3%

COc1cc(N2CCC(N3CCN(C)CC3)CC2)ccc1Nc1ncc(Cl)c(Nc2ccccc2[S+](=O)([O-])C(C)C)n1
cell viability [1]: 69.2%
cell viability [2]: 80%
cell viability [3]: 98.6%
cell viability [4]: 118%
cell viability [5]: 147%
cell viability [6]: 124%
cell viability [7]: 130%
cell viability [8]: 65.1%
cell viability [9]: 55.6%
cell viability [10]: 38.7%
cell viability [11]: 17.1%
cell viability [12]: 87.2%
cell viability [13]: 73.3%
cell viability [14]: 125%
cell viability [15]: 136%
cell viability [16]: 133%
cell viability [17]: 134%
cell viability [18]: 130%
cell viability [19]: 75.9%
cell viability [20]: 64.9%
cell viability [21]: 61.5%
cell viability [22]: 49.6%
cell viability [23]: 78.3%
cell viability [24]: 66.3%
cell viability [25]: 103%
cell viability [26]: 113%
cell viability [27]: 146%
cell viability [28]: 142%
cell viability [29]: 131%
cell viability [30]: 84.3%
cell viability [31]: 61.4%
cell viability [32]: 60.4%
cell viability [33]: 59.1%

COc1ccc(/C=C/C(=O)Nc2ccccc2C(=O)O)cc1OC
cell viability [1]: 119%
cell viability [2]: 105%
cell viability [3]: 120%
cell viability [4]: 149%
cell viability [5]: 112%
cell viability [6]: 117%
cell viability [7]: 119%
cell viability [8]: 78.8%
cell viability [9]: 120%
cell viability [10]: 73.7%
cell viability [11]: 86.9%
cell viability [12]: 108%
cell viability [13]: 111%
cell viability [14]: 108%
cell viability [15]: 109%
cell viability [16]: 114%
cell viability [17]: 110%
cell viability [18]: 105%
cell viability [19]: 95%
cell viability [20]: 112%
cell viability [21]: 92.3%
cell viability [22]: 87.5%
cell viability [23]: 104%
cell viability [24]: 114%
cell viability [25]: 118%
cell viability [26]: 94.8%
cell viability [27]: 104%
cell viability [28]: 128%
cell viability [29]: 105%
cell viability [30]: 110%
cell viability [31]: 104%
cell viability [32]: 104%
cell viability [33]: 83.8%
